According to paper doi:10.1101/2022.03.12.484055v1 (biorxiv, 2022):

biological target: T1, ASIC1 (hASIC1; ASIC1a as primary isoform in tsA-201 cells) (Homo sapiens, UniProt P78348); assay: automated patch clamp, single concentration; assay type: cell-based; conditions: tsA201, read-out: % inhibition @ 30 µM
T1 sequence (P78348 1-528): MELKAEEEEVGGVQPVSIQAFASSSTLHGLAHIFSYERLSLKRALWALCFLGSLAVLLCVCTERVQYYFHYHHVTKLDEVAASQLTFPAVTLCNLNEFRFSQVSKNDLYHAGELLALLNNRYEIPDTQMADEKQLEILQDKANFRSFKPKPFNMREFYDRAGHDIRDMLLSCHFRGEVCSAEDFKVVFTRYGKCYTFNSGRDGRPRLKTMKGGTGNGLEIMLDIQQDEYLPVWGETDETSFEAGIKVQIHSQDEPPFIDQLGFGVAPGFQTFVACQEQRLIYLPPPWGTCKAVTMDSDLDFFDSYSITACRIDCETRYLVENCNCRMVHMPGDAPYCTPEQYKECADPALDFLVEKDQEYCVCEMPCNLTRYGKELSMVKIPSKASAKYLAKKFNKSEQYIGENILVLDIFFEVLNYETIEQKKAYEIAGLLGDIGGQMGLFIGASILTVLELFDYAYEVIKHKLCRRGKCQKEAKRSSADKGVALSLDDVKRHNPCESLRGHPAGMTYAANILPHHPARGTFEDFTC

inhibition at 30 µM | SMILES
71 ± 2% | CC(C)(C)c1ccc2oc(-c3nc(C(=O)NC(=N)N)c(N)nc3N)cc2c1 [compound 21, 21]
82 ± 1% | COc1ccc2oc(-c3nc(C(=O)NC(=N)N)c(N)nc3N)cc2c1 [compound 29, 29]

biological target: T1, ASIC1 (hASIC1; ASIC1a as primary isoform in tsA-201 cells); assay: cell-based; conditions: tsA201, read-out: % inhibition @ 30 µM

inhibition at 30 µM | SMILES
45% | N=C(N)NC(=O)c1nc(-c2cc3ccccc3s2)c(N)nc1N [compound 18, 18]
59% | N=C(N)NC(=O)c1nc(-c2ccc3occc3c2)c(N)nc1N [compound 43, 43]
69% | N=C(N)NC(=O)c1nc(-c2cc3cc(Cl)ccc3o2)c(N)nc1N [compound 25, 25]
44% | N=C(N)NC(=O)c1nc(-c2ccc(C(F)(F)F)cc2)c(N)nc1N [compound 48, 48]
67% | N=C(N)NC(=O)c1nc(-c2cc3ccccc3s2)c(N2CCCCCC2)nc1N [compound 19, 19]
88% | N=C(N)NC(=O)c1nc(Cl)c(N)nc1N [compound 11, amiloride]
17% | N=C(N)NC(=O)c1nc(-c2cc3ncccc3o2)c(N)nc1N [compound 37, 37]

More lines, now with the values behind:

SMILES | inhibition at 30 µM
COc1ncc(-c2nc(C(=O)NC(=N)N)c(N)nc2N2CCCCCC2)cn1 [compound 47] | 33%
N#Cc1ccc2oc(-c3nc(C(=O)NC(=N)N)c(N)nc3N3CCCCCC3)cc2c1 [compound 32, 32] | 64%
N=C(N)NC(=O)c1nc(-c2ccc3c(c2)CCO3)c(N2CCCCCC2)nc1N [compound 42, 42] | 49%
N=C(N)NC(=O)c1nc(-c2cc3cc(F)cc(F)c3o2)c(N2CCCCCC2)nc1N [compound 36, 36] | 69%
N=C(N)NC(=O)c1nc(-c2cc3cc(Br)ccc3o2)c(N2CCCCCC2)nc1N [compound 28, 28] | 59%
COc1ccc2cc(-c3nc(C(=O)NC(=N)N)c(N)nc3N)oc2c1 [compound 33, 33] | 68%
N=C(N)NC(=O)c1nc(-c2cc3cc(Br)ccc3o2)c(N)nc1N [compound 27, 27] | 45%
N=C(N)NC(=O)c1nc(-c2cc3cnccc3o2)c(N)nc1N [compound 39, 39] | 36%
N=C(N)NC(=O)c1nc(-c2cc3ncccc3o2)c(N2CCCCCC2)nc1N [compound 38, 38] | 20%
COc1ccc2oc(-c3nc(C(=O)NC(=N)N)c(N)nc3N3CCCCCC3)cc2c1 [compound 30, 30] | 35%
N=C(N)NC(=O)c1nc(-c2ccc3c(c2)CCO3)c(N)nc1N [compound 41, 41] | 22%
Cc1ccc2oc(-c3nc(C(=O)NC(=N)N)c(N)nc3N)cc2c1 [compound 20, 20] | 65%
N#Cc1ccc2oc(-c3nc(C(=O)NC(=N)N)c(N)nc3N)cc2c1 [compound 31, 31] | 30%
N=C(N)NC(=O)c1nc(Cl)c(N2CCCCCC2)nc1N [compound 13, HMA] | 79%
Cn1cc(-c2nc(C(=O)NC(=N)N)c(N)nc2N2CCCCCC2)cn1 [compound 50, 50] | 53%
CC(C)(C)c1ccc2oc(-c3nc(C(=O)NC(=N)N)c(N)nc3N3CCCCCC3)cc2c1 [compound 22, 22] | 44%
COc1ncc(-c2nc(C(=O)NC(=N)N)c(N)nc2N)cn1 [compound 46] | 34%
N=C(N)NC(=O)c1nc(-c2cc3cc(F)ccc3o2)c(N2CCCCCC2)nc1N [compound 24, 24] | 58%
N=C(N)NC(=O)c1nc(-c2ccc3occc3c2)c(N2CCCCCC2)nc1N [compound 44, 44] | 23%
N=C(N)NC(=O)c1nc(-c2ccco2)c(N2CCCCCC2)nc1N [compound 15, 15] | 46%
N=C(N)NC(=O)c1nc(-c2cc3ccccc3o2)c(N2CCCCCC2)nc1N [compound 17] | 64%
N=C(N)NC(=O)c1nc(-c2cc3cnccc3o2)c(N2CCCCCC2)nc1N [compound 40, 40] | 21%
N=C(N)NC(=O)c1nc(-c2cc3cc(Cl)ccc3o2)c(N2CCCCCC2)nc1N [compound 26, 26] | 35%
N=C(N)NC(=O)c1nc(-c2cncnc2)c(N2CCCCCC2)nc1N [compound 45, 45] | 25%
N=C(N)NC(=O)c1nc(-c2ccc(C(F)(F)F)cc2)c(N2CCCCCC2)nc1N [compound 49, 49] | 67%

biological target: T1, ASIC1 (hASIC1; ASIC1a as primary isoform in tsA-201 cells); assay: cell-based; conditions: tsA201, read-out: % inhibition @ 30 µM; remark: another data set of the same source

inhibition at 30 µM | SMILES
10% | N=C(N)NC(=O)c1nc(-c2cc3ccccc3o2)c(NC2CCCCCC2)nc1N [compound 64, 64]
46% | CCN(c1nc(N)c(C(=O)NC(=N)N)nc1-c1cc2ccccc2o1)C(C)C [compound 62, 62]
22% | N=C(N)NC(=O)c1nc(-c2cc3ccccc3o2)c(NC2CCCC2)nc1N [compound 63, 63]
31% | N=C(N)NC(=O)c1nc(-c2cc3ccccc3o2)c(NCCc2ccccc2)nc1N [compound 66, 66]
59% | N=C(N)NC(=O)c1nc(-c2cc3ccccc3o2)c(N2CCCC2)nc1N [compound 59, 59]
39% | N=C(N)NC(=O)c1nc(-c2cc3ccccc3o2)c(NCc2ccccc2)nc1N [compound 65, 65]
54% | N=C(N)NC(=O)c1nc(-c2cc3ccccc3o2)c(N2CCCCC2)nc1N [compound 60, 60]

biological target: T1, ASIC1 (hASIC1; ASIC1a as primary isoform in tsA-201 cells); assay: cell-based; conditions: tsA201, read-out: % inhibition @ 30 µM; remark: another data set of the same source

inhibition at 30 µM | SMILES
11% | CC(C)Nc1ncc(-c2nc(C(=O)NC(=N)N)c(N)nc2N2CCCCCC2)cn1 [compound 75, 75]
27% | CNc1ncc(-c2nc(C(=O)NC(=N)N)c(N)nc2N2CCCCCC2)cn1 [compound 74, 74]
6% | Nc1nc(N2CCCCCC2)c(-c2cc3ccccc3o2)nc1C(=O)O [compound 68, 68]
15% | Nc1nnc(-c2nc(-c3cc4ccccc4o3)c(N3CCCCCC3)nc2N)[nH]1 [compound 70, 70]
10% | CN(C)C(=O)c1nc(-c2cc3ccccc3o2)c(N2CCCCCC2)nc1N [compound 69, 69]
9% | COC(=O)c1nc(-c2cc3ccccc3o2)c(N2CCCCCC2)nc1N [compound 67, 67]
8% | Nc1noc(-c2nc(-c3cc4ccccc4o3)c(N3CCCCCC3)nc2N)n1 [compound 71, 71]
6% | N=C(N)NC(=O)c1nc(-c2cnc(NCCO)nc2)c(N2CCCCCC2)nc1N [compound 76, 76]
31% | CN(C)CCC(=O)c1nc(-c2cc3ccccc3o2)c(N2CCCCCC2)nc1N [compound 72, 72]
6% | N=C(N)NC(=O)c1nc(-c2cnc(N)nc2)c(N2CCCCCC2)nc1N [compound 73, 73]

biological target: T1, ASIC1 (hASIC1; ASIC1a as primary isoform in tsA-201 cells); assay: cell-based; conditions: tsA201, read-out: % inhibition @ 30 µM; remark: another data set of the same source

inhibition at 30 µM | SMILES
94% | N=C(NC(=O)c1nc(Cl)c(N)nc1N)Nc1ccccc1 [compound 96, 96]
79% | Cc1ccc(S(=O)(=O)NCCNc2nc(N)c(C(=O)NC(=N)N)nc2Cl)cc1 [compound 91]
91% | N=C(N)NC(=O)c1nc(Cl)c(NCCc2ccccc2)nc1N [compound 88]
90% | N=C(N)NC(=O)c1nc(Cl)c(NCc2ccccc2)nc1N [compound 87]
80% | N#CCCNc1nc(N)c(C(=O)NC(=N)N)nc1Cl [compound 89]
81% | N=C(N)NC(=O)c1nc(Cl)c(NCCP(=O)(O)O)nc1N [compound 90, 90]
95% | N=C(N)NC(=O)c1nc(I)c(N)nc1N [compound 97]
22% | N=C(N)NC(=O)c1ccccc1 [compound 92, 92]

Second part, the compound before the results:

SMILES | inhibition at 30 µM
N=C(N)NC(=O)c1ccccn1 [compound 93, 93] | 22%
CC(C)c1ccc(C(=O)NC(=N)N)cc1S(C)(=O)=O [compound 95, 95] | 37%

biological target: T1, ASIC1 (hASIC1; ASIC1a as primary isoform in tsA-201 cells); assay: cell-based; conditions: tsA201, read-out: % inhibition @ 30 µM; remark: another data set of the same source

inhibition at 30 µM | SMILES
67% | N=C(N)NC(=O)c1nc(Cl)c(N2CCCOCC2)nc1N [compound 83, 83]
26% | N=C(N)NC(=O)c1nc(-c2cc3ccccc3o2)c(N2CCCOCC2)nc1N [compound 86, 86]
65% | N=C(N)NC(=O)c1nc(-c2ccc(C(F)(F)F)cc2)c(C2CC2)nc1N [compound 79, 79]
78% | N=C(N)NC(=O)c1nc(-c2ccc(C(F)(F)F)cc2)c(N2CCCC2)nc1N [compound 78, 78]
14% | N=C(N)NC(=O)c1nc(-c2cncnc2)c(N2CCCOCC2)nc1N [compound 84, 84]
75% | N=C(N)NC(=O)c1nc(Cl)c(N2CCOCC2)nc1N [compound 80, 80]
8% | COc1ncc(-c2nc(C(=O)NC(=N)N)c(N)nc2N2CCCOCC2)cn1 [compound 85, 85]
